Non-standard residues stand in square brackets, D forms with d. Residues, ends and D or L forms follow the SMILES beside them. Groups on a side chain read outwards from the residue. No end group written: not given here. Phe(4-NH2) = Nc1ccc(C[C@H](N)C(=O)O)cc1; Aze = O=C(O)[C@@H]1CCN1; Nleu = CC(C)CNCC(=O)O; Aib = CC(C)(N)C(=O)O Where only a bound is given, the exact number is not on record here.

Series [1] is described as follows: Rate of model dipeptide cleavage from model hexapeptide in PBS (HPLC). The following applies: buffer.
Description: (§1) The solution was incubated at 37° C. […] The dipeptide cleavage was quenched by lowering the pH with an equal volume of 0.1% TFA. The rate of cleavage was qualitatively monitored by LC-MS and quantitatively studied by HPLC. The retention time and relative peak area for the prodrug and the parent model peptide were quantified using Peak Simple Chromatography software.
(§2) The flow rate was 1 ml/min. Solvent A contained 0.1% TFA in distilled water, and solvent B contained 0.1% TFA in 90% CH3CN. A linear gradient was employed (0% to 30% B in 10 minutes). The data were collected and analyzed using Peak Simple Chromatography software.
(§3) The rate of cleavage was determined for the respective propeptides. The concentrations of the propeptides and the model parent peptide were determined by their respective peak areas. The first order dissociation rate constants of the prodrugs were determined by plotting the logarithm of the concentration of the prodrug at various time intervals. The slope of this plot provides the rate constant ‘k’.
A short description of series [2]: physchem. The following applies: buffer.
Description: as §1, §2, §3
Series [3] is described as follows: Dipeptide half life on IGF1 dipeptide extended (p-NH2-F)A19 amide derivatives in PBS (HPLC). In kind it is physicochemical. The following applies: buffer, pH 7.4. Here is the method:
IGF-1 peptides was measured to determine the impact of the peptide sequence or heteroduplex on the dipeptide cleavage.
Accordingly, the IGF1A chain alone was determined to be a good model for the study of pro-drug half life on IGF1 B:A (Y^B16L^B17) derivative peptides. […] For simplicity, prodrug half lives were determined using only the IGF1 A chain in the absence of the B chain. The half lives of each propeptide was determined as described in Example 5.
The IGF^B16B17 derivative peptide prodrugs were incubated in PBS, pH 7.4 at 37° C. and at predetermined time intervals an aliquot was taken and further degradation was quenched with 0.1% TFA and the aliquot was subjected to analytical HPLC analysis. Peaks a and b, representing the prodrug and active forms of the IGF^B16B17 derivative peptide were identified with LC-MS and quantified by integration of peak area an HPLC. FIGS. 9A-9C show the output of an HPLC analysis of the degradation of the IGF^B16B17 derivativepeptide prodrug: IGF1A(Ala)^6,7,11,20(Aib-Pro-pNH-F)^19. Aliquots were taken at 20 minutes (FIG. 9A), 81 minutes (FIG. 9B) and 120 minutes (FIG. 9C) after beginning the incubation of the prodrug in PBS.

Series [4] can be described thus: in vitro. In kind it is in vitro ADME. Particulars: plasma.
The target in series [5] is Insulin Receptor (Homo sapiens, UniProt P06213). Put plainly: Insulin receptor binding assay (competition, scintillation proximity). Particulars: compared with native insulin. Background: Scintillation proximity formats need no separation of bound from free tracer.
Sequence of Insulin Receptor (P06213 28-758 limits assumed): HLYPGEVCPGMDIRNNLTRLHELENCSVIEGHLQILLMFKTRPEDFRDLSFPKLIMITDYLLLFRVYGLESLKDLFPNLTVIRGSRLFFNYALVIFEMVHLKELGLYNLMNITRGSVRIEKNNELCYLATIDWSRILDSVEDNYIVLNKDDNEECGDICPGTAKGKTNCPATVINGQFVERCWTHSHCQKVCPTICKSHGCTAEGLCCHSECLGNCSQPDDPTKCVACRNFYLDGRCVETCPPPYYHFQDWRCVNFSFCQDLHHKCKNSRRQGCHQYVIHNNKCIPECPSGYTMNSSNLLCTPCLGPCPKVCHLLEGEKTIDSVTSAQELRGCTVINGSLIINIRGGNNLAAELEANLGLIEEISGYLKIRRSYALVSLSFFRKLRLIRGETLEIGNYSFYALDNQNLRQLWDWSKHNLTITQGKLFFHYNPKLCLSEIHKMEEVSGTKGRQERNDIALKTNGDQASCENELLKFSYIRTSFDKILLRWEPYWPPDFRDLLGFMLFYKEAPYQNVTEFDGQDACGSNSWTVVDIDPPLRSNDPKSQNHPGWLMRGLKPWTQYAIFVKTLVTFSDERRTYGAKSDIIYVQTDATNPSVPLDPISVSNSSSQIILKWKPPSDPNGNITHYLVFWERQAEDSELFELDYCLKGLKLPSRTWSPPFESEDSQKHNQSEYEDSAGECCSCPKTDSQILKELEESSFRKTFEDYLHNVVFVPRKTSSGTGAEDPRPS
Sequence of Insulin Receptor (P06213 763-1382 partner limits assumed): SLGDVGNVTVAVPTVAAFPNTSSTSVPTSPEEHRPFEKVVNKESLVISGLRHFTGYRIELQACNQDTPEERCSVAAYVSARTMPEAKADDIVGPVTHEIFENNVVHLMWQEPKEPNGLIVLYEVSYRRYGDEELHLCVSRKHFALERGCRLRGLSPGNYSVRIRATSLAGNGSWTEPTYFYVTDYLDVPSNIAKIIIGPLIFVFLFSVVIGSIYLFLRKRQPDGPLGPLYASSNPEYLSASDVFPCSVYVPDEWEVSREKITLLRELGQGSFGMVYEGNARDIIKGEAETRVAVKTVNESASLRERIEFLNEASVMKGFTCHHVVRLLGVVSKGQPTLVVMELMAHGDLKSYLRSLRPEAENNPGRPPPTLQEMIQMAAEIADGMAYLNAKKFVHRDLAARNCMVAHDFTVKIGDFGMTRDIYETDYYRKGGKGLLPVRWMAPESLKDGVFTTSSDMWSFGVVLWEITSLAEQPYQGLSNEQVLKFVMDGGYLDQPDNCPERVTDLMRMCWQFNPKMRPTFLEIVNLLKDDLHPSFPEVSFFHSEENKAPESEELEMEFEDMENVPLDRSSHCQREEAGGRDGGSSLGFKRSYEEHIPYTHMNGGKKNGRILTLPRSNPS
Series [6] deals with human IGF-1 receptor (human, UniProt P08069 31-1367). Put plainly: cell-based or functional assay.

For `C[C@@H](O)[C@H](NC(=O)CNC(=O)[C@H](CCCNC(=N)N)NC(=O)[C@H](CO)NC(=O)[C@H](Cc1c[nH]cn1)NC(=O)[C@H](C)N(C)C(=O)[C@H](N)CCCCN)C(=O)N[C@@H](Cc1ccccc1)C(N)=O` [Compound 31], the half-life at 1 mg/ml in series [1] was 14 h.
Take `C[C@@H](O)[C@H](NC(=O)CNC(=O)[C@H](CCCNC(=N)N)NC(=O)[C@H](CO)NC(=O)[C@H](Cc1c[nH]cn1)NC(=O)[C@H](Cc1ccccc1)N(C)C(=O)[C@H](N)CCCCN)C(=O)N[C@@H](Cc1ccccc1)C(N)=O` [Compound 32]: the half-life at 1 mg/ml in series [1] is 57 h.
Molecule `C[C@@H](O)[C@H](NC(=O)CNC(=O)[C@H](CCCNC(=N)N)NC(=O)[C@H](CO)NC(=O)[C@H](Cc1c[nH]cn1)NC(=O)[C@@H]1CCN1C(=O)C(C)(C)N)C(=O)N[C@@H](Cc1ccccc1)C(N)=O` [Compound 26] (H-[Aib][Aze]HSRGTF-NH2) gave a half-life at 1 mg/ml in series [2] above 500 h.
On to `CC[C@H](C)[C@H](NC(=O)CN)C(=O)N[C@H](C(=O)N[C@@H](CC(=O)O)C(=O)N[C@@H](CCC(=O)O)C(=O)N[C@@H](C)C(=O)N[C@@H](C)C(=O)N[C@@H](Cc1ccccc1)C(=O)N[C@@H](CCCNC(=N)N)C(=O)N[C@@H](CO)C(=O)N[C@@H](C)C(=O)N[C@@H](CC(=O)O)C(=O)N[C@@H](CC(C)C)C(=O)N[C@@H](CCCNC(=N)N)C(=O)N[C@@H](CCCNC(=N)N)C(=O)N[C@@H](CC(C)C)C(=O)N[C@@H](CCC(=O)O)C(=O)N[C@@H](CCSC)C(=O)N[C@@H](Cc1ccc(NC(=O)CN(CC(C)C)C(=O)[C@H](N)CCCCN)cc1)C(=O)N[C@@H](C)C(=O)N[C@@H](C)C(N)=O)C(C)C` [dK N-isobutyl Gly] (H-GIVDEAAFRSADLRRLEM[Phe(4-NH2)]([Nleu-dK])AA-NH2), for which the half-life in series [3] is 4.4 h; in series [4], 4.1 h.
On to `CC[C@H](C)[C@H](NC(=O)CNC(=O)[C@@H]1CCCN1C(=O)[C@H](C)N)C(=O)N[C@H](C(=O)N[C@@H](CC(=O)O)C(=O)N[C@@H](CCC(=O)O)C(=O)N[C@H]1CSSC[C@@H]2NC(=O)[C@H](CO)NC(=O)[C@H](CCCNC(=N)N)NC(=O)[C@H](Cc3ccccc3)NC(=O)[C@H](CSSC[C@H](NC(=O)[C@H](CC(C)C)NC(=O)[C@@H](NC(=O)[C@H](CCC(=O)O)NC(=O)[C@@H]3CCCN3C(=O)CN)[C@@H](C)O)C(=O)NCC(=O)N[C@@H](C)C(=O)N[C@@H](CCC(=O)O)C(=O)N[C@@H](CC(C)C)C(=O)N[C@@H](C(C)C)C(=O)N[C@@H](CC(=O)O)C(=O)N[C@@H](C)C(=O)N[C@@H](CC(C)C)C(=O)N[C@@H](Cc3ccc(O)cc3)C(=O)N[C@@H](CC(C)C)C(=O)N[C@@H](C(C)C)C(=O)N[C@H](C(=O)NCC(=O)N[C@@H](CC(=O)O)C(=O)N[C@@H](CCCNC(=N)N)C(=O)NCC(=O)N[C@@H](Cc3ccccc3)C(=O)N[C@@H](Cc3ccc(O)cc3)C(=O)N[C@@H](Cc3ccccc3)C(=O)N[C@@H](CC(N)=O)C(=O)N[C@@H](CCCCN)C(=O)N3CCC[C@H]3C(=O)N[C@H](C(N)=O)[C@@H](C)O)CSSC[C@@H](C(=O)N[C@@H](C)C(N)=O)NC(=O)[C@H](Cc3ccc(O)cc3)NC(=O)[C@H](CCSC)NC(=O)[C@H](CCC(=O)O)NC(=O)[C@H](CC(C)C)NC(=O)[C@H](CCCNC(=N)N)NC(=O)[C@H](CCCNC(=N)N)NC(=O)[C@H](CC(C)C)NC(=O)[C@H](CC(=O)O)NC2=O)NC1=O)C(C)C` [IGF1(Y^B16L^B17)(AlaPro)^A-1,0], for which, in series [5], the “insulin receptor binding, in words” value was “substantially reduced affinity for the insulin receptor”.

B1: IGF-1 A (H8 A9 N21):B(H5D10Y16L17 A22) DPI A-COOH (ligand)
chain 1: GIVDECCHASCDLRRLEMYCN-OH
chain 2: GPEHLCGADLVDALYLVCGDAGFY
modifications: not fully specified (bridges); cysteine pairing not given here
With B1, the “% IGF” value in series [6] came to 7.7%.

One may read the half-life as the time needed for the level to fall by half in the phase considered. Read a low half-life as fast loss.

The record behind these values is patent publication US20110245164A1 (INDIANA UNIVERSITY RESEARCH AND TECHNOLOGY, published 2011).
